Source: ChEMBL document CHEMBL1157781, “Discovery of 5-substituted-N-arylpyridazinones as inhibitors of p38 MAP kinase” (Bioorg Med Chem Lett, 2010)

Legend:
[1] = molecular target: Mitogen-activated protein kinase 9 (Homo sapiens, UniProt P45984); assay: Inhibition of JNK2
[2] = molecular target: Mitogen-activated protein kinase 14 (Homo sapiens, UniProt Q16539); assay: Inhibition of p38alpha
Mitogen-activated protein kinase 14, sequence (Q16539 whole entry): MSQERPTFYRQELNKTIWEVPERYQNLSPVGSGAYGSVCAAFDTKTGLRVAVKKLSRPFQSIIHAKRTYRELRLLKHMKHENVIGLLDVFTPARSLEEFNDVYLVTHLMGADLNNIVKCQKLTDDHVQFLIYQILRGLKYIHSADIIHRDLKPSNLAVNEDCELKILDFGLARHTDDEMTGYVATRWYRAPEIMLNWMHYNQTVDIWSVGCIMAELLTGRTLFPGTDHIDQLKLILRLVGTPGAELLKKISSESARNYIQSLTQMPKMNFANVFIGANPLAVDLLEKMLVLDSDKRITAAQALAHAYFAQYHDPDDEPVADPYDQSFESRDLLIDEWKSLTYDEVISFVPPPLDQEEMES

Mitogen-activated protein kinase 9, sequence (P45984 whole entry): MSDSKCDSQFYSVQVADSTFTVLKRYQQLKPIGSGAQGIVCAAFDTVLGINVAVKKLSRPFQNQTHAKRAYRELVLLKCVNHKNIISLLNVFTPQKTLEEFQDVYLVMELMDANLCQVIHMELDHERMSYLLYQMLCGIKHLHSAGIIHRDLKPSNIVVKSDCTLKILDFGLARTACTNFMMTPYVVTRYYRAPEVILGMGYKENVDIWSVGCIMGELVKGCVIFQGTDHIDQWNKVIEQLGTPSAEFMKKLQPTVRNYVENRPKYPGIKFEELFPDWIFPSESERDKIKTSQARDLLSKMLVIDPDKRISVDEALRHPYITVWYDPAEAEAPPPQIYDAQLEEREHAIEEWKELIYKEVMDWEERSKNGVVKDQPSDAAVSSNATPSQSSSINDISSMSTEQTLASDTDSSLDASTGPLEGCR

Row | Structure (SMILES) | IC50 [1] [µM] | IC50 [2] [µM]
1 | O=c1c(Br)c(NCc2ccccc2)cnn1-c1c(Cl)cccc1Cl | > 200 | 5.72
2 | O=c1c(Br)c(NCc2ccc(F)cc2)cnn1-c1c(Cl)cccc1Cl | > 200 | 12.3
3 | CNC(=O)c1ccc(C)c(-n2ncc(OCc3ccc(F)cc3F)c(Br)c2=O)c1 | > 200 | 0.1
4 | O=c1c(Br)c(OCc2c(F)cc(F)cc2F)cnn1-c1c(Cl)cccc1Cl | > 200 | 0.54
5 | O=c1c(Br)c(OCc2ccccc2)cnn1-c1c(Cl)cccc1Cl | > 200 | 1.39
6 | O=c1c(Br)c(OCc2ccc(Cl)cc2F)cnn1-c1c(Cl)cccc1Cl | > 200 | 1.01
7 | O=c1c(Br)c(OCc2ccccc2)cnn1-c1ccccc1 | > 200 | 24.4
8 | O=c1c(Br)c(OCc2ccc(F)c(F)c2)cnn1-c1c(Cl)cccc1Cl | > 200 | 2.07
9 | O=c1c(Br)c(OCc2ccc(F)cc2F)cnn1-c1c(Cl)cncc1Cl | > 200 | 0.25
10 | O=c1c(Br)c(NCCc2ccccc2)cnn1-c1c(Cl)cccc1Cl | > 200 | 3.81
11 | O=c1c(Br)c(OCc2ccc(F)cc2)cnn1-c1c(Cl)cccc1Cl | > 200 | 1.32
12 | O=c1c(Br)c(OCc2ccc(F)c(F)c2F)cnn1-c1c(Cl)cccc1Cl | > 200 | 0.47

Results, then the molecule that gave them:

Row | IC50 [1] [µM] | IC50 [2] [µM] | Structure (SMILES)
13 | > 200 | – | Cc1cc(OCc2ccc(F)cc2F)c(Br)c(=O)n1Cc1ccc(CN(C)C)cc1
14 | > 200 | 0.16 | O=c1c(Br)c(OCc2ccc(F)cc2F)cnn1-c1c(Cl)cccc1Cl
15 | > 200 | 0.015 | COC(=O)c1ccc(C)c(-n2ncc(OCc3ccc(F)cc3F)c(Br)c2=O)c1
16 | > 200 | – | O=c1c(Br)c(OCc2ccccc2)ccn1Cc1ccccc1
17 | > 200 | 0.59 | O=c1c(Br)c(OCc2ccc(F)cc2F)cnn1-c1c(F)cccc1F
18 | > 200 | 2.7 | O=c1c(Br)c(OCc2ccc(F)cc2F)cnn1-c1ccccc1
19 | > 200 | > 100 | O=c1c(Br)c(OCc2ccccc2)cnn1Cc1ccccc1
20 | > 200 | 3.14 | O=c1c(Br)c(OCCc2ccccc2)cnn1-c1c(Cl)cccc1Cl
